Publication PMC6627489, “Metal-Biosurfactant Complexes Characterization: Binding, Self-Assembly and Interaction with Bovine Serum Albumin” (International Journal of Molecular Sciences, 2019)
Non-standard residues stand in square brackets, D forms with d. No end group written: not given here.

Columns and labels:
[1] = Surface tension measurements (du Noüy ring), CMC determination; format: physicochemical; conditions: du Noüy ring tensiometry, 10 mM Hepes buffer pH 7.4, 25 °C, metal ions 0.1 mM where present, triplicate
Description: For the pure surfactin in the Hepes buffer without divalent counterions, the critical micelle concentration (CMC) value was 0.045 mM. Regarding the effect of divalent cations, Ca^2+ decreased the CMC value of surfactin-C15 more than the other cations. Compared with the surfactin-C15 solution without metal ions, the CMC of Ca^2+-surfactin decreased from 0.045 mM to 0.017 mM. The addition of 0.1 mM of Cu^2+, Mg^2+ and Zn^2+ to surfactin-C15 reduced the CMCs to 0.033 mM, 0.036 mM and 0.038 mM, respectively. All the tested metal ions led to reductions of the surface tension of surfactin-C15 at the CMC (γcmc), being the highest reductions obtained with Cu^2+ and Ca^2+ (from 28.4 mN·m^−1 up to 24.5 and 25.1 mN·m^−1, respectively). The peptide ring of surfactin adopts a “horsesaddle” structure in solution, with the two charged residues forming a “claw”, which is a potential binding site for divalent cations.
Figure 3 Surface tension profiles of surfactin and metal-surfactin complexes in Hepes buffer (pH 7.4) at 25 °C. The values represent the mean of triplicates ± SD.
The surface tension (γ) measurements were performed at room temperature (25 °C) according to the du Noüy’s ring method using a KRÜSS K20 Tensiometer (KRÜSS GmbH, Hamburg, Germany). […] The surface tension data were analyzed using the Origin software provided with the equipment to obtain the CMC values.

[2] = molecular target: bovine serum albumin (BSA) (Bos taurus, UniProt P02769); experiment: Fluorescence quenching of BSA (Stern-Volmer, binding constant, Van't Hoff); conditions: for kq, biomolecular quenching rate constant / KSV, Stern-Volmer quenching constant: BSA 15 µM; for kq, biomolecular quenching rate constant: from KSV with τ0 about 5 ns; for KSV, Stern-Volmer quenching constant: excitation 280 nm; for ΔG of binding to BSA: ΔG=ΔH−TΔS
Source text: Fluorescence spectroscopy is a valuable tool for studying ligand-protein interactions. BSA contains two tryptophan residues, Trp134 and Trp213, which are located in sub-domain IB and sub-domain IIA, respectively. The maximum emission wavelength of BSA was found at 348 nm, and the intensity decreased regularly upon increasing the concentration of surfactin and metal-surfactin complexes. This interaction takes place adjacent to the Trp in BSA and changes the polarity around the fluorophore. This phenomenon is ascribed to the formation of surfactin/BSA and metal-surfactin/BSA complexes.
Figure 4 Fluorescence emission spectra of bovine serum albumin (BSA) with different concentrations of Cu^2+-surfactin (a), Zn^2+-surfactin (b), Mg^2+-surfactin (c), Ca^2+-surfactin (d) and surfactin (e). Conditions: BSA: 15 µM; metal-lipopeptide (a–g): 0, 10, 20, 50, 70, 100 and 120 µM; pH = 7.4; T =25 °C.
Fluorescence quenching can occur through dynamic and static mechanisms. Both dynamic and static quenching require molecular contact between the fluorophore and the quencher. The Stern–Volmer quenching (KSV) values decrease with an increase in temperature for static quenching, but the reverse effect is observed for dynamic quenching. Quenching parameters were calculated from the Stern–Volmer equation [34]:(1) F0/F=1+KSV[Q]=1+kqτ0[Q] where F0 and F are the fluorescence intensities in the absence and presence of surfactin or metal-surfactin complexes, respectively; KSV is the Stern–Volmer quenching constant; [Q] is the concentration of surfactin or metal-surfactin complexes; kq is the biomolecular quenching rate constant; and τ0 is the lifetime of the fluorophore. The fluorescence lifetime of BSA is about 5 ns. The KSV values obtained from the plot of [Q] versus F0/F (shown in Figure 5) were in the range from 6.696 × 10^3 to 7.787 × 10^3 M^−1 corresponding to the surfactin and metal-surfactin complexes.
For the static quenching interaction, the binding constant (Kb) and the number of binding sites (n) can be determined by the following equation:(2) log[(F0−F)/F]=logKb+nlog[Q] where F0 and F are the fluorescence intensities in the absence and presence of surfactin or metal-surfactin complexes, respectively, and [Q] is the concentration of surfactin or metal-surfactin complexes. Binding constants obtained from the plot of log [Q] versus log [(F0−F)/F] (Figure 6) corresponding to surfactin and metal-surfactin complexes ranged from 0.746 × 10^4 to 1.315 × 10^4 M^−1. […] Regarding the binding constants (Kb), surfactin has values higher than all the tested metal-surfactin complexes. […] The above results are similar to those reported for metal-amphisin/BSA [27].
Thermodynamic parameters for a binding interaction can be used as major evidence for the nature of intermolecular forces. There are four types of interaction forces, which could play a role in ligand binding to proteins: Van der Waals forces, hydrophobic forces, electrostatic interactions and hydrogen bonds. Thermodynamic parameters relying on temperatures were analyzed to characterize the acting force between surfactin and metal-surfactin complexes with BSA. To obtain such information, the thermodynamic parameters were calculated from the Van’t Hoff relation:(3) lnK=−ΔH^0/RT+ΔS^0/R (4) ΔG^0=ΔH^0−TΔS^0=−RTlnK where K is the binding constant, R is the gas constant and T is the experimental temperature. ΔH denotes the enthalpy change and ΔS denotes the entropy change of the binding process. The ΔH and ΔS values were calculated from the slope and intercept of the Van’t Hoff plot (Figure S2), respectively. The negative sign for ΔG means that the interaction process is spontaneous. […] This observation is supported by the docking results.
The fluorescence quenching spectra were obtained with a Varian Cary eclipse fluorescence spectrophotometer. […]

[3] = Micelle size by dynamic light scattering (DLS); format: physicochemical; conditions: 10 mM Hepes pH 7.4, 25 °C
Source text: For example, it is known that the addition of metal ions decreases the CMC of surfactin. This is probably related with two important competing forces during the micellization process. Electrostatic interactions, which are responsible for the repulsion of hydrophilic groups of the lipopeptide inhibit the formation of micelles. On the other hand, hydrophobic interactions are responsible for initiation of micellization through exclusion of fatty acid chains from the aqueous environment. The presence of divalent cations additionally supports the self-assembly process. […] In the case of the Cu^2+-surfactin system, Vmic^PM6 is twice lower than in the case of the free lipopeptide. Such big differences influence the aggregation number. Generally, Nagg decreases after binding of cations. The experimental micelle volumes and hydrodynamic radii with their theoretically calculated counterparts and aggregation numbers are shown in Table 1. The experimental (RH^DLS) and theoretically calculated (RH^PM6) hydrodynamic radii of surfactin-C15 were 2.46 nm and 2.40 nm, respectively. Addition of Cu^2+, Zn^2+, Mg^2+ and Ca^2+ reduces the size of the microstructures. In this study, we observed the largest modifications of surfactin-C15 conformation due to the binding of Cu^2+; in that case RH^DLS and RH^PM6 were 1.82 nm and 1.80 nm, respectively. […]

[4] = 25 °C, pH 7.4, from plot of log[(F0−F)/F] versus log[Q]
[5] = Van't Hoff plot over 25, 30, 37 °C

bovine serum albumin (BSA), sequence (P02769 25-607): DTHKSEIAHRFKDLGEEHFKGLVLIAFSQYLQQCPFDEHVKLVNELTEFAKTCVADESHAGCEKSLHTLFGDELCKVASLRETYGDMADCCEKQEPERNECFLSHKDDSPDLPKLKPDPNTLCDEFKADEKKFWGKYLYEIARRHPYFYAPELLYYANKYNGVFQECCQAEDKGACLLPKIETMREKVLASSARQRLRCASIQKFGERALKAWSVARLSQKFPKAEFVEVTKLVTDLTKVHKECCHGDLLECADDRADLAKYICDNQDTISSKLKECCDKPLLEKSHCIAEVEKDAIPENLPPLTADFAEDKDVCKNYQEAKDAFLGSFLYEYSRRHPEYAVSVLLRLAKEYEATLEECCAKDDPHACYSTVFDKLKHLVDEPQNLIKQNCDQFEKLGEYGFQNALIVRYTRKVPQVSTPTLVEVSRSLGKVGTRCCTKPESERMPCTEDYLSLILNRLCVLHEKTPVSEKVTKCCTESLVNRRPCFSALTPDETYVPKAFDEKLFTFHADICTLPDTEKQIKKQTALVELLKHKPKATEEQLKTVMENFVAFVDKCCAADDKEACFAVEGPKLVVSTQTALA

critical micelle concentration (CMC) ([1]; surfactin-C15 0.003-0.12 mM): 0.045 mM
surface tension at the CMC (γcmc) [1]: 28.4 mN·m^−1
Kb, binding constant with BSA [2, 4]: 13150 M⁻¹
n, number of binding sites on BSA [2, 4]: 1.07
kq, biomolecular quenching rate constant ([2]; T 25 °C, pH 7.4): 1.339e+12 M⁻¹ s⁻¹
KSV, Stern-Volmer quenching constant ([2]; T 25 °C, pH 7.4, quencher 0-120 µM): 6696 M⁻¹
ΔG of binding to BSA ([2]; T 25 °C): -5.22 kcal/mol
KSV, Stern-Volmer quenching constant ([2]; T 30 °C, pH 7.4): 4926 M⁻¹
kq, biomolecular quenching rate constant ([2]; T 30 °C, pH 7.4): 9.852e+11 M⁻¹ s⁻¹
ΔG of binding to BSA ([2]; T 30 °C): -5.112 kcal/mol
KSV, Stern-Volmer quenching constant ([2]; T 37 °C, pH 7.4): 3147 M⁻¹
kq, biomolecular quenching rate constant ([2]; T 37 °C, pH 7.4): 6.294e+11 M⁻¹ s⁻¹
ΔG of binding to BSA ([2]; T 37 °C): -4.964 kcal/mol
ΔH of binding to BSA [2, 5]: -11.57 kcal/mol
ΔS of binding to BSA [2, 5]: −89.20 J·mol^−1·K^−1
RH^(DLS), hydrodynamic radius of micelles ([3]; DLS, 173° backscatter, mean of 9 replicates ± SD): 2.46 ± 0.03 nm
Vmic^(DLS), micelle volume ([3]; Vmic(DLS)=4/3·π·(RH(DLS))^3, from DLS radius): 62.36 nm^3
Substance: EL[dL]VD[dL]L (also: lariat or depsi (positions not given here)) [Surfactin, surfactin-C15, cyclic lipopeptide biosurfactant from Bacillus subtilis #309; heptapeptide closed to a lactone ring by a C15 β-hydroxyl fatty acid]
